Values of other authors in patent US20060165806A1, “Nanoparticulate candesartan formulations” (Elan Pharma International Limited, priority 2005, published 2006).

Experiments:
[1] = system: other hormone receptors or ion channels known to be important in cardiovascular regulation; settings: receptors and channels important in cardiovascular regulation
ACE (kininase II) = ACE (kininase II) (Homo sapiens, UniProt P12821)
AT1 receptor = biological target: T1, AT1 receptor (Homo sapiens, UniProt P30556); settings: AT1 versus AT2 receptor
T1 sequence (P30556 1-359): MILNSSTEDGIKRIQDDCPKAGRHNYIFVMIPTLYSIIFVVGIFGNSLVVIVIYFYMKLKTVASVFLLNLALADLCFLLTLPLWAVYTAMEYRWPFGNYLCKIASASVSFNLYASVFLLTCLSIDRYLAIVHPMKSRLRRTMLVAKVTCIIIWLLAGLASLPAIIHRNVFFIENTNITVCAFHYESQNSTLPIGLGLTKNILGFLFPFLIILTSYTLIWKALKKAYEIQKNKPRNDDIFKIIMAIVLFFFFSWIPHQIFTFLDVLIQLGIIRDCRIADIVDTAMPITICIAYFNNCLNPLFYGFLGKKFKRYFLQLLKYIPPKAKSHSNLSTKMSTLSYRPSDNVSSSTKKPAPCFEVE

Chain of ACE (kininase II) (P12821 30-1306, species assumed): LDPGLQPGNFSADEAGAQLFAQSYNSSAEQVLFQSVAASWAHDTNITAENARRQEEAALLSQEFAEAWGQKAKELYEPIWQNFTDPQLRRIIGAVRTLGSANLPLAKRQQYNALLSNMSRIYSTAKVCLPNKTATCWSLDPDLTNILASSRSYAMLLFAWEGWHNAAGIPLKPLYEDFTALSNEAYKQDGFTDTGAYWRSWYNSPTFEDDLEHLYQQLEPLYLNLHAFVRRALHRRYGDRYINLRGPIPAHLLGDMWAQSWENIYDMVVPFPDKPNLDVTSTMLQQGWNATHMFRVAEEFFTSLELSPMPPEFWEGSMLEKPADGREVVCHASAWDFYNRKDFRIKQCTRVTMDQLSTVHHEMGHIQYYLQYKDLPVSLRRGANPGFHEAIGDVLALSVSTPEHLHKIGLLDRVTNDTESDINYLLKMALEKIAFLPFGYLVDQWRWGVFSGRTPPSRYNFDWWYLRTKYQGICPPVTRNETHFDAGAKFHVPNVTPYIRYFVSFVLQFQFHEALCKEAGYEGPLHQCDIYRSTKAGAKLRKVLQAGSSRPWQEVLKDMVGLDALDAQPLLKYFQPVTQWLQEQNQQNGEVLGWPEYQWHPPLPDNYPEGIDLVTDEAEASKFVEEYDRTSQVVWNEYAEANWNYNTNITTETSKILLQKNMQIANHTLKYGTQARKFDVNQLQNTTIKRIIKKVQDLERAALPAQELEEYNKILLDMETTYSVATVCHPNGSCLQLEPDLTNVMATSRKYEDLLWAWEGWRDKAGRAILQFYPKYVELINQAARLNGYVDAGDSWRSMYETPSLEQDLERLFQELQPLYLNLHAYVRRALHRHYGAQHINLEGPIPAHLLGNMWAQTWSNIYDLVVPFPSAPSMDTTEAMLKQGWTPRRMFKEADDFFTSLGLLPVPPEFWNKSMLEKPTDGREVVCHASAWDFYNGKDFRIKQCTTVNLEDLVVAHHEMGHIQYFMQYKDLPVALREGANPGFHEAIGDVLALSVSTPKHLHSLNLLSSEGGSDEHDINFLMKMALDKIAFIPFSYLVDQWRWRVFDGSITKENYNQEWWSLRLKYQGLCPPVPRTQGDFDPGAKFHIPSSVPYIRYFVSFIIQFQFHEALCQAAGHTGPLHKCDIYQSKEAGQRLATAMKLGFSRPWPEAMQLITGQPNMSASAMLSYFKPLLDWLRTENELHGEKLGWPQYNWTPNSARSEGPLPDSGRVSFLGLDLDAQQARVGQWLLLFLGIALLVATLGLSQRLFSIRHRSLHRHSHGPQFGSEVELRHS

| Structure (SMILES) | solubility in water | binding to or blocking of other hormone receptors or ion channels [1] | inhibition of ACE (kininase II) (ACE (kininase II)) | greater affinity for the AT1 receptor than for the AT2 receptor (AT1 receptor) |
| --- | --- | --- | --- | --- |
| CCOc1nc2cccc(C(=O)OC(C)OC(=O)OC3CCCCC3)c2n1Cc1ccc(-c2ccccc2-c2nnn[nH]2)cc1 (racemic) [Candesartan cilexitil, (“)-1-Hydroxyethyl 2-ethoxy-1-[p-(o-1H-tetrazol-5-ylphenyl)benzyl]-7-benzimidazolecarboxylate, cyclohexyl carbonate(ester)] | practically insoluble |  |  |  |
| CCOc1nc2cccc(C(=O)O)c2n1Cc1ccc(-c2ccccc2-c2nnn[nH]2)cc1 [Candesartan] |  | does not bind to or block | does not inhibit | > 10,000 fold |
